What was measured:
HDAC11 = target: T1, HDAC11 (Homo sapiens, UniProt Q96DB2); details: Kalita et al. 2005; one range for HDAC1, 2, 3 and 11; cited from earlier work
T1 sequence (Q96DB2 1-347): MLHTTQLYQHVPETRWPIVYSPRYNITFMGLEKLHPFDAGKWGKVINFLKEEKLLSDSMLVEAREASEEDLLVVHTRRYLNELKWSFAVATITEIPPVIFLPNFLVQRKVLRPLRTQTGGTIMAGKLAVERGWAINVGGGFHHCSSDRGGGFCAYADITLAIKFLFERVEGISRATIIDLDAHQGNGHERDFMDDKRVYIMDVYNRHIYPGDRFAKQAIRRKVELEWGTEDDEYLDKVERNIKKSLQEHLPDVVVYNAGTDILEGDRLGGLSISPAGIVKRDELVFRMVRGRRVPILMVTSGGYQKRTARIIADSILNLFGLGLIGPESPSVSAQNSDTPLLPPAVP

HDACs 4 to 8 = details: read-out: HDACs 4 to 8 IC50; Kalita et al. 2005; cited from earlier work
[1] = target: T2, recombinant HDAC1 isolated from HEK293 cells with heterologous HDAC1 expression (Homo sapiens, UniProt Q13547); assay: Fluorimetric rHDAC1 activity assay; assay type: biochemical; details: only a range of IC50 over the compounds given; read-out: rHDAC1 inhibitory activity IC50
T2 construct: made in house

[2] = test system: cellular HDAC activity in HeLa cells; assay: Quantification of cellular HDAC activity in HeLa cells; assay type: cell-based, human; details: 4 h compound incubation; for lists of compounds only a range is printed; read-out: Inhibition of cellular HDAC activity in HeLa cells IC50
Description: To assess the cellular potency of histone deacetylase inhibitors, an assay recently described was applied (Ciossek et al. Anal Biochem e-pub 2007). 5×10^3 HeLa cervical carcinoma cells/well (ATCC CCL-2) were cultivated in 200 μl/well DMEM (containing 10% FCS) in cell culture microliter plates (white, 96 well flat bottom plates suitable for fluorimetric analysis; Costar Art. No. 3917). Cells were cultivated for 24 h under standard cell culture conditions at 37° C. and 5% CO2 to allow cell attachment and proliferation. The compounds of the present invention were added at different concentrations (dilutions done in DMSO) and incubation continued for 4 h at 37° C. under cell culture conditions (each concentration was tested in quadruplicate). […] After discarding the culture medium, 100 μl/well substrate solution (200 μM Boc-K(Ac)-AMC in DMEM (containing 10% FCS), stock solution diluted 1:250) were added and incubation continued at 37° C. under cell culture conditions for further 3 h. […] After incubation for 5 min at 37° C., cells were lysed by addition of 100 μl/well lysis buffer (50 mM TRIS pH 8, 137 mM NaCl, 2.7 mM KCl, 1 mM MgCl2, 1 vol % NP-40) and further incubation for 20 min at 37° C. Finally, the amount of AMC was quantified using the Wallac Victor device (extinction λ=355 nm, emission at λ=460 inn).

[3] = test system: histone H3 hyperacetylation in HeLa cervical carcinoma cells; assay: Cellular histone H3 hyperacetylation assay; assay type: cell-based; details: Homo sapiens, 24 h, only a range over the listed compounds is given, read-out: Induction of histone H3 hyperacetylation in HeLa cervical carcinoma cells EC50
A549 NSCLC cell line = assay: Cellular cytotoxicity assay (Alamar Blue), A549; assay type: cell-based; details: Homo sapiens, A549; 72 h; only a range over the listed compounds is given; read-out: Cytotoxicity towards A549 NSCLC cell line IC50
[4] = test system: HeLa cervical carcinoma cell line; assay: Cellular cytotoxicity assay (Alamar Blue), HeLa; assay type: cell-based; details: Homo sapiens, 72 h, only a range over the listed compounds is given, read-out: Cytotoxicity towards HeLa cervical cell line IC50
[5] = test system: Cal27 head and neck cancer cell line; assay: Cellular cytotoxicity assay (Alamar Blue), Cal27; assay type: cell-based; details: Homo sapiens, CAL-27; 72 h; only a range over the listed compounds is given; read-out: Cytotoxicity towards Cal27 cell line IC50
Description: The anti-proliferative activity of the chimeric HDAC and protein kinase inhibitory chimeric compounds of the present invention was evaluated using HeLa cervical carcinoma, A549 NSCLC, SKOV3 ovarian carcinoma, Cal27 head and neck cancer, K562 chronic myeloid leukemia (CML) and EOL1 acute hypereosinophilic myeloid leukemia, cell lines. For quantification of cellular proliferation/living cells the Alamar Blue (Resazurin) cell viability assay was applied (O'Brien et al. Eur Biochem. 267, 5421-5426, 2000). In this assay Resazurin is reduced to the fluorescent resorufin by cellular dehydrogenase activity, correlating with viable, proliferating cells. The examples were dissolved as 20 mM solutions in dimethylsulfoxide (DMSO) and subsequently diluted in semi-logarithmic steps. Cell lines were seeded at respective density into 96 well flat bottom plates in a volume of 200 μl per well. 24 h after seeding 1 μl each of the compound dilutions were added into each well of the 96 well plate. Each compound dilution was tested as quadruplicates. Wells containing untreated control cells were filled with […] DMEM medium containing 0.5% v:v DMSO. The cells were then incubated with the substances for 72 h at 37° C. in a humidified atmosphere containing 5% carbon dioxide. To determine the viability of the cells, 20 μl of an Resazurin solution (Sigma; 90 mg/l) were added. After 4 h incubation at 37° C. the fluorescence was measured at an extinction of 544 nm and an emission of 590 nm. For the calculation of the cell viability the emission value from untreated cells was set as 100% viability and the emission rates of treated cells were set in relation to the values of untreated cells. Viabilities were expressed as % values. The corresponding IC50 values of the compounds for cytotoxic activity are determined from the concentration-effect curves by means of non-linear regression.

[6] = test system: SKOV3 ovarian carcinoma cell line; assay: Cellular cytotoxicity assay (Alamar Blue), SKOV3; assay type: cell-based; details: Homo sapiens, SK-OV-3; 72 h; only a range over the listed compounds is given; read-out: Cytotoxicity towards SKOV3 cell line IC50

T2 sequence (Q13547 whole entry): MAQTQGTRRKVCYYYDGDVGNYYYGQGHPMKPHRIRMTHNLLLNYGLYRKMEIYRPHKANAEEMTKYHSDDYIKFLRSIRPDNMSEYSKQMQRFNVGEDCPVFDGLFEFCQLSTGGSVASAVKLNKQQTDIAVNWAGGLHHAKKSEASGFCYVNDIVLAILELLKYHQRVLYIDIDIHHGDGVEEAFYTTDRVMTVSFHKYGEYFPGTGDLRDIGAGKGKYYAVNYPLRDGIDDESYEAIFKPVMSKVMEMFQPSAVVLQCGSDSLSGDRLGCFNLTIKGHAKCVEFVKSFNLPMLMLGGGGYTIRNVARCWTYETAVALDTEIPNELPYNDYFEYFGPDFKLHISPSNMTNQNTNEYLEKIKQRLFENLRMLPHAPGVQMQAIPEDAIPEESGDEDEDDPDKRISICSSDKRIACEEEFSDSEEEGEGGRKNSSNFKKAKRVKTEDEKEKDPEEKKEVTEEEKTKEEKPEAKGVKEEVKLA

IC50 [1] [nM] | IC50 [2] [nM] | EC50 [3] [nM] | Structure (SMILES) | IC50 (HDAC11) [nM] | IC50 (HDACs 4 to 8) [nM] | IC50 (A549 NSCLC cell line) [nM] | IC50 [4] [nM] | IC50 [5] [nM] | IC50 [6] [nM]
– | – | – | Nc1ccccc1NC(=O)c1ccc(CNc2nccc(-c3cccnc3)n2)cc1 [MGCD0103] | 100 to 2000 | > 20000 | – | – | – | –
≥ 35.3 | 430 | ≥ 3650 | O=C(/C=C/c1cccc(-c2ccc3ncnc(Nc4ccc(OCc5cccc(F)c5)c(Cl)c4)c3c2)c1)NO [[9], E-3-(3-(4-(3-chloro-4-(3-fluorobenzyloxy)phenylamino)quinazolin-6-yl)phenyl)-N-hydroxy-acrylamide] | – | – | ≥ 1100 | 910 to 9400 | ≥ 280 | ≥ 1000

Reference: patent US20110065734A1, “NOVEL BIFUNCTIONAL COMPOUNDS WHICH INHIBIT PROTEIN KINASES AND HISTONE DEACETYLASES” (4SC AG, priority 2007, published 2011)
